Columns and labels:
SK-Hep1 cells = test: Growth and morphology of SK-Hep1 cells in Met-free DMEM supplemented with Met or Met sulfoxides (MTS proliferation assay, microscopy); type: cell-based, human; settings: Met-free DMEM supplemented with 0.1 mM of the compound
Experimental: Cell culture—SK-Hep1 (ATCC: HTB-52™) and fRMsr-transfected SK-Hep1 cells were cultured in DMEM or Met-free DMEM (GIBCO) media, supplemented with 0.1 mM Met, 0.1 mM Met-RO, 0.1 mM Met-SO, or 0.1 mM Met-RSO. […] Thus, 0.1 mM Met sulfoxides were used in the experiments described below. Cell culture experiments, with the exception of a proliferation assay, were carried out in 6-well plates, and cells were maintained at 37° C. in a 5% CO2 atmosphere. Proliferation Assay—Cell growth was quantified using colorimetric MTS assay (Promega). Cells in regular DMEM medium were plated in 96-well plates at 5×10^3 cells/well, washed with PBS, and specialized DMEM media were added that contained Met, Met-SO, Met-RO, or Met-RSO 24 hours after plating. To assay for cell proliferation, a tetrazolium compound [3-(4,5-dimethylthiazol-2-yl)-5-(3-carboxymethoxyphenyl)-2-(4-sulfophenyl)-2H-tetrazolium, inner salt; MTS] and an electron coupling reagent (phenazine methosulfate; PMS) were mixed according to the manufacturer's protocol and then 20 μL of the mixture were added to 100 μL of phenol red-excluded media that further replaced cell culture media. After 90 minutes of incubation at 37° C. in the atmosphere of 5% CO2, cell proliferation was measured at indicated time periods from 0 to 96 hours at 450 nm in a plate reader. Direct counting of viable cells using 0.2% trypan blue was done in 6-well plates. Microscopy—A Nikon TE-300 Widefield Microscope was used to prepare images of SK-Hep1 cells grown on different Met and Met sulfoxide media. Microscopy analyses were carried out in the University of Nebraska Microscopy Core Facility.

selenoproteins = test: 75Se metabolic labeling of SK-Hep1 cells grown on Met and Met sulfoxide media; type: cell-based, human; settings: 0.1 mM of each amino acid
Experimental: ^75 Se Metabolic labeling—SK-Hep1 cells were plated in 6-well plates at 7.5×10^4 cells/well in 1.5 mL of regular DMEM medium. After 24 hours, cells were washed with PBS and the medium was changed to modified DMEM media containing Met, Met-SO, Met-RO, or Met-RSO (0.1 mM of each amino acid). 0.01 mCi of freshly neutralized [^75Se]selenious acid (specific activity 1,000 Ci/mmol, University of Missouri Research Reactor) was added in each well at 48 hours after changing the medium and cells were incubated at 37° C. for 24 hours in 5% CO2 atmosphere, followed by harvesting the cells. Cell extracts (30 μg of total protein) were electrophoresed on 10% Bis-Tris gels and transferred onto PVDF membranes (Invitrogen). The ^75Se radioactivity pattern was visualized by using a PhosphorImager (GE Health Care).

mouse MsrA = target: T1, mouse MsrA (Mus musculus, UniProt Q9D6Y7); test: Reduction of methylsulfinyl compounds by mouse MsrA (HPLC/GC analysis); type: biochemical; settings: DTT as a reductant
T1 sequence (Q9D6Y7 21-233): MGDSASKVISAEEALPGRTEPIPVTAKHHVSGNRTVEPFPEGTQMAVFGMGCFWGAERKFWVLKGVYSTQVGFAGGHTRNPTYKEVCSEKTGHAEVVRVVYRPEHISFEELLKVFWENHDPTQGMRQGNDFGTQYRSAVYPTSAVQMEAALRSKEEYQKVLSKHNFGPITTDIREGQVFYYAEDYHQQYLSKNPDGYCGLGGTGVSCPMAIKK
Experimental: (§1) The isothiocyanate group in R,S-sulforaphane reacts with sulfhydryls to form conjugated compounds. First, the compound was treated with excess DTT (which has two free sulfhydryl groups) to conjugate the isothiocyanate group of R,S-sulforaphane or S-sulforaphane with the sulfhydryl group of DTT and the resulting adducts were then used as substrates for mouse MsrA and mouse MsrB2. The reduction of the DTT-sulforaphane adduct was analyzed using HPLC analysis of the adduct with buffer (as control; FIG. 12A), mouse MsrB2 (FIG. 12B), and mouse MsrA (FIG. 12C). The arrows indicate the migration of the DTT-erucin adduct. […] FIG. 13 illustrates the HPLC analysis of the DTT-R-sulforaphane adduct incubated with buffer (as control) (FIG. 13A), mouse MsrA (FIG. 13B), and mouse MsrB2 (FIG. 13C). Again, the arrows show the migration of the DTT-erucin adduct.
(§2) Mesoridazine, which has a mild effect on treating schizophrenia, was examined to determine its reduction by yeast fRMsr, mouse MsrB2, and mouse MsrA (FIG. 14). The peak of m/z 387.6 corresponds to the molecular weight of mesoridazine and the peak of m/z 371.6 corresponds to the molecular weight of thioridazine. FIG. 14B details the HPLC analysis of mesoridazine incubated with mouse MsrB2 and DTT. FIG. 14C provides the HPLC analysis of mesoridazine incubated with yeast fRMsr and DTT. FIG. 14D illustrates the specific activities of various Msrs for the reduction of mesoridazine (left to right): mouse MsrA in the presence of DTT as a reductant, mouse MsrA in the presence of the thioredoxin reducing system, mouse MsrB2 in the presence of DTT, and yeast fRMsr in the presence of DTT.
(§3) The reduction of triclabendazole sulfoxide was examined. This compound has been used to treat liver fluke, Fasciola hepatica and Fasciola gigantica, in sheep, goat, and cattle as a form of triclabendazole. Triclabendazole can be metabolized to several different forms including triclabendazole sulfoxide, which is an oxidized form of methylsulfide group, in biological systems. FIG. 15A provides an HPLC analysis of triclabendazole sulfoxide incubated with mouse MsrA and DTT. The peak of m/z 375.2 and 377.2 correspond to the molecular weight of triclabendazole sulfoxide and the peak of m/z 359.2 and 361.2 correspond to the molecular weight of triclabendazole. FIG. 15B illustrates an HPLC analysis of triclabendazole sulfoxide incubated with mouse MsrB2 and DTT. FIG. 15C details an HPLC analysis of triclabendazole sulfoxide incubated with yeast fRMsr and DTT. FIG. 15D illustrates the specific activities of various Msrs for the reduction of triclabendazole sulfoxide (left to right): mouse MsrA in the presence of DTT as a reductant, mouse MsrA in the presence of the thioredoxin reducing system, mouse MsrB2 in the presence of DTT, and yeast fRMsr in the presence of DTT.
(§4) Another methylsulfinyl-containing drug, sulmazole, was tested as a substrate for Msrs. This drug is pharmacologically active as a cardiotonic agent and is a phosphodiesterase inhibitor. FIG. 16A details an HPLC analysis of sulmazole incubated with mouse MsrA and DTT. The peak of m/z 288.3 corresponds to the molecular weight of sulmazole and the peak of m/z 272.3 corresponds to the molecular weight of reduced form of sulmazole. FIG. 16B illustrates an HPLC analysis of sulmazole incubated with mouse MsrB2 and DTT. FIG. 16C provides an HPLC analysis of sulmazole incubated with yeast fRMsr and DTT. FIG. 16D details the specific activities of various Msrs for the reduction of sulmazole (left to right): mouse MsrA in the presence of DTT as a reductant, mouse MsrA in the presence of the thioredoxin reducing system, mouse MsrB2 in the presence of DTT, and yeast fRMsr in the presence of DTT.
DMSO, which is used as a preservative for stem cells, solvent for drugs, and a drug itself with anti-inflammatory and free radical scavenging properties, was studied for its reduction by Msrs. FIG. 17A details a GC analysis of DMSO incubated with mouse MsrA and DTT. […]

mouse MsrB2 = mouse MsrB2 (Mus musculus, UniProt Q78J03); test: Reduction of methylsulfinyl compounds by mouse MsrB2 (HPLC/GC analysis); type: biochemical; settings: in the presence of DTT
Chain of mouse MsrB2 (Q78J03 43-175): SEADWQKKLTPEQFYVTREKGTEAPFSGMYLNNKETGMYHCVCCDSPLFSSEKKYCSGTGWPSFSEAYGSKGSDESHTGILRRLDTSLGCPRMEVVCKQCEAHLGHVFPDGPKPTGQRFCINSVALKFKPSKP
Experimental: as §1, §2, §3
as §4, with “FIG. 16D details the specific activities of various Msrs for the reduction of sulmazole (left to right): mouse MsrA in the presence of DTT as a reductant, mouse MsrA in the presence of the thioredoxin reducing system, mouse MsrB2 in the presence of DTT, and yeast fRMsr in the presence of DTT.” left out

yeast fRMsr = target: T2, yeast fRMsr (Saccharomyces cerevisiae, UniProt P36088); test: Activity assay of purified recombinant yeast fRMsr towards free Met sulfoxides (HPLC, OPA derivatization); type: biochemical, S. cerevisiae; settings: recombinant His-tagged yeast fRMsr
T2 construct: His-tag (C); made in house; host or cells: E. coli BL21 (DE3), pET21b
T2 sequence (P36088 1-180): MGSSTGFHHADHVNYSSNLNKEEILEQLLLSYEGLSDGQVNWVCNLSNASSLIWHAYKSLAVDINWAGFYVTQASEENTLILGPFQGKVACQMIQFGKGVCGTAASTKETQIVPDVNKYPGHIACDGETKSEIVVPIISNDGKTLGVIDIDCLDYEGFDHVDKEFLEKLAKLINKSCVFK
Excerpt: Cloning and expression of yeast fRMsr—Characterization of S. cerevisiae fRMsr (YKL069W) is described in Le, D. T., et al. (2009) Functional analysis of free methionine-R-sulfoxide reductase from Saccharomyces cerevisiae. J Biol Chem., 284(7), 4354-4364. Briefly, a yeast fRMsr cDNA, which encodes a protein homologous to fRMsr from E. coli, was amplified from S. cerevisiae genomic DNA and subcloned into pET21b vector (Novagen) using primers 5′-AAACATATGATGGGCTCATCAACCGGGTTTC-3′ (sense; SEQ ID NO:1) and 5′-AAGCGGCCGCGACACATGATTTATTAATTAATTTAGCAAG-3′ (antisense; SEQ ID NO:2). After transformation into BL21 (DE3) E. coli, the subcloned sequence was verified by DNA sequencing. Cells with the plasmid in 500 mL LB medium containing 100 μg/mL ampicillin were grown until OD600 reached 0.6-0.8, followed by addition of IPTG to 0.3 mM. Protein expression was at 30° C. for 4 hours, followed by harvesting cells by centrifugation at 4,000 rpm for 5 minutes. Cells were washed with PBS and stored at −70° C. until use.
To purify the protein, a cell pellet was dissolved in resuspension buffer (Tris-HCl, pH 7.5, 15 mM imidazole, 300 mM NaCl), and PMSF was added to a final concentration of 0.5 mM. After sonication, the supernatant was collected by centrifugation at 8,000 rpm for 30 minutes. The supernatant was loaded onto a cobalt Talon resin (Clontech) pre-equilibrated with resuspension buffer. Following washing with the same buffer, the protein was eluted with elution buffer (Tris-HCl, pH 7.5, 300 mM imidazole, 300 mM NaCl). Fractions containing yeast fRMsr were pooled together and dialyzed overnight against PBS in a dialysis cassette (Pierce).
Activity assays of fRMsr—Reaction mixture (40 μL) included 50 mM DTT, 1 mM substrate (Met-RO or Met-SO), and purified enzyme or cell lysate prepared by treatment with CelLytic™M cell lysis reagent (Sigma). 20 μL of the reaction mixture was mixed with 2 μL of TCA and subjected to OPA derivatization as described above and then injected onto the column to measure endogenous Met level in the samples. An additional 20 μL from the same original reaction mixture were incubated at 37° C. for 30 minutes and then subjected to OPA derivatization by the same procedure using TCA. After derivatization of the sample (2-5 μL) by adding OPA solution to 100 μL as a final volume, 50 μL of the mixture were subjected to an HPLC separation as described above.

[1] = system: MsrA-knockdown SK-Hep1 cells; test: Growth of MsrA-knockdown SK-Hep1 cells on Met and Met sulfoxide media; type: cell-based, human; settings: 0.1 mM, 96 hours
Experimental: Proliferation Assay—Cell growth was quantified using colorimetric MTS assay (Promega). Cells in regular DMEM medium were plated in 96-well plates at 5×10^3 cells/well, washed with PBS, and specialized DMEM media were added that contained Met, Met-SO, Met-RO, or Met-RSO 24 hours after plating. To assay for cell proliferation, a tetrazolium compound [3-(4,5-dimethylthiazol-2-yl)-5-(3-carboxymethoxyphenyl)-2-(4-sulfophenyl)-2H-tetrazolium, inner salt; MTS] and an electron coupling reagent (phenazine methosulfate; PMS) were mixed according to the manufacturer's protocol and then 20 μL of the mixture were added to 100 μL of phenol red-excluded media that further replaced cell culture media. After 90 minutes of incubation at 37° C. in the atmosphere of 5% CO2, cell proliferation was measured at indicated time periods from 0 to 96 hours at 450 nm in a plate reader. Direct counting of viable cells using 0.2% trypan blue was done in 6-well plates. Knockdown of MsrA in SK-Hep1 cells by siRNA—Double stranded siRNAs (Dharmacon) for targeting human MsrA mRNA were used to knockdown this gene in SK-Hep1 cells. Cells were transfected with siRNA by using DharmaFECT™ Transfection Reagent (Dharmacon) according to the manufacturer's protocol. Proliferation of these cells was assayed 60 hours after transfection in comparison with control transfected cells.

CBS = test: Western blot analysis of CBS in SK-Hep1 cells grown on Met and Met sulfoxide media; type: cell-based, human; settings: SK-Hep1 cells, 0.1 mM
Experimental: Analysis of SK-Hep1 and fRMsr-transfected SK-Hep1 cells—SK-Hep1 and fRMsr-transfected SK-Hep1 cells were plated in 6-well plates at 7.5×10^4 cells/well in regular DMEM medium. The medium was changed to Met-free DMEM supplemented with either Met or individual Met sulfoxides at 24 hours after plating. Cells were then collected every 24 hours until 96 hours. Protein concentration was measured by the Bradford assay and the samples were probed by standard immunoblot assays with polyclonal MsrA (kindly provided by Bertrand Friguet), cystathionine beta synthase (CBS) (kindly provided by Ruma Banerjee), and activating transcription factor 3 (ATF3) (Santa Cruz Biotechnology) antibodies.

Compound | Growth of SK-Hep1 cells (SK-Hep1 cells) | Selenoprotein patterns (75Se labeling) (selenoproteins) | Reduction by mouse MsrA (mouse MsrA) | Reduction by mouse MsrB2 (mouse MsrB2) | Activity of recombinant yeast fRMsr protein towards the substrate (yeast fRMsr) | further results
C[S+]([O-])CC[C@H](N)C(=O)O (stereo partly drawn) [Met-RSO, L-Met-R,S-sulfoxide] | could also proliferate | No difference was observed | – | – | – | –
C[S@+]([O-])CCCCNC(=S)SCC(O)C(O)CS (stereo partly drawn) [DTT-S-sulforaphane adduct] | – | – | can be reduced | not by mouse MsrB2 | – | –
CN(C)c1ccc(/N=N/c2ccc(S(=O)(=O)N[C@@H](CC[S@@+](C)[O-])C(=O)O)cc2)cc1 [dabsyl-Met-RO] | – | – | – | – | inactive | –
CN(C)c1ccc(N=Nc2ccc(S(=O)(=O)N[C@@H](CC[S@+](C)[O-])C(=O)O)cc2)cc1 [dabsyl-Met-SO] | – | – | – | – | inactive | –
C[S@@+]([O-])CCCCNC(=S)SCC(O)C(O)CS (stereo partly drawn) [DTT-R-sulforaphane adduct] | – | – | cannot be reduced | cannot be reduced | – | –
CSCC[C@H](N)C(=O)O [Met, methionine] | grew best | No difference was observed | – | – | – | Growth of MsrA-deficient cells [1]: still supported their growth; Expression of CBS (CBS): maintained stable CBS levels
